Converted amounts (≈) assume the structure as drawn.
Experiments:
[1] = target: T1, Carnitine O-palmitoyltransferase 1, muscle isoform (Homo sapiens, UniProt Q92523); test: SUPPLEMENTARY: Inhibition of Carnitine palmitoyltransferase 1, muscle isoform; parameters: species or system Muscle tissue
T1 sequence (Q92523 whole entry): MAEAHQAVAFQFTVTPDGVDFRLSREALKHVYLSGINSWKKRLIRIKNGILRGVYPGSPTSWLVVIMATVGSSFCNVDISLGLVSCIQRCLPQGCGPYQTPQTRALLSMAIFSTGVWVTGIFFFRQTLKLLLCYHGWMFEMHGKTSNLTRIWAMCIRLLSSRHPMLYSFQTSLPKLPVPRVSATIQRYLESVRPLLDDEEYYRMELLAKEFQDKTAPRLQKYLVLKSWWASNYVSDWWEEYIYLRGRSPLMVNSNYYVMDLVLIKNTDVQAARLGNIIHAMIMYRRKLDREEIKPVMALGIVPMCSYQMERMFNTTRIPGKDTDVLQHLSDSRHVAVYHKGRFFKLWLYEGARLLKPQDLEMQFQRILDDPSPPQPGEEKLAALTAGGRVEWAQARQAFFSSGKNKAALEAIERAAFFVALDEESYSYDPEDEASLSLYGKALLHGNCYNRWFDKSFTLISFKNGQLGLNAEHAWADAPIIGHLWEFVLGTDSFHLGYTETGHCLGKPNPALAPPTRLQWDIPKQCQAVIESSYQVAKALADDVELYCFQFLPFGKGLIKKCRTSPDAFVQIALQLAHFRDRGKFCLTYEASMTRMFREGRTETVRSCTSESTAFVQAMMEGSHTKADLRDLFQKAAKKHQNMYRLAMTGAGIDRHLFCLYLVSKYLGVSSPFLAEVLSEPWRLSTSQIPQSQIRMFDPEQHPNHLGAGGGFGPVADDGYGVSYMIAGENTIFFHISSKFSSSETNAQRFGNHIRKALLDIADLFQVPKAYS

[2] = target: T2, Carnitine O-palmitoyltransferase 2, mitochondrial (Homo sapiens, UniProt P23786); test: (§1) SUPPLEMENTARY: Inhibition of Carnitine palmitoyltransferase 2
T2 sequence (P23786 whole entry): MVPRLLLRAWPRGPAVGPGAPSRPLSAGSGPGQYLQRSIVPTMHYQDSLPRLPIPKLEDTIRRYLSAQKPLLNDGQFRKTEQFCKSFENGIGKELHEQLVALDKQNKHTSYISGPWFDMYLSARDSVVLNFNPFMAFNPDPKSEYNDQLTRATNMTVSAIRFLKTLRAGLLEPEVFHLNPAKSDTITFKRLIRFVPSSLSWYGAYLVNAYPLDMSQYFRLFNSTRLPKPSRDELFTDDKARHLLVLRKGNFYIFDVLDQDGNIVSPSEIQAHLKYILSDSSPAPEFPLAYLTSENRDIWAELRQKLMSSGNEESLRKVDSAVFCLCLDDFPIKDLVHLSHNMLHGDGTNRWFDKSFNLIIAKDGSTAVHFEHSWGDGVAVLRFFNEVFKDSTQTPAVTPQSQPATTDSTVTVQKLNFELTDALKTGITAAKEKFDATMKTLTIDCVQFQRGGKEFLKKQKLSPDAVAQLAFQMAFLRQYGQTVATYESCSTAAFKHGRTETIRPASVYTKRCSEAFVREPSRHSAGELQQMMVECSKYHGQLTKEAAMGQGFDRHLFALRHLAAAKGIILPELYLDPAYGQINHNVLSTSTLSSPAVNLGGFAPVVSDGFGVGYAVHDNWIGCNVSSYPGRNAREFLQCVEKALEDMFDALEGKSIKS

[3] = target: T3, Carnitine O-palmitoyltransferase 2, mitochondrial (Rattus norvegicus, UniProt P18886); test: as §1
T3 sequence (P18886 whole entry): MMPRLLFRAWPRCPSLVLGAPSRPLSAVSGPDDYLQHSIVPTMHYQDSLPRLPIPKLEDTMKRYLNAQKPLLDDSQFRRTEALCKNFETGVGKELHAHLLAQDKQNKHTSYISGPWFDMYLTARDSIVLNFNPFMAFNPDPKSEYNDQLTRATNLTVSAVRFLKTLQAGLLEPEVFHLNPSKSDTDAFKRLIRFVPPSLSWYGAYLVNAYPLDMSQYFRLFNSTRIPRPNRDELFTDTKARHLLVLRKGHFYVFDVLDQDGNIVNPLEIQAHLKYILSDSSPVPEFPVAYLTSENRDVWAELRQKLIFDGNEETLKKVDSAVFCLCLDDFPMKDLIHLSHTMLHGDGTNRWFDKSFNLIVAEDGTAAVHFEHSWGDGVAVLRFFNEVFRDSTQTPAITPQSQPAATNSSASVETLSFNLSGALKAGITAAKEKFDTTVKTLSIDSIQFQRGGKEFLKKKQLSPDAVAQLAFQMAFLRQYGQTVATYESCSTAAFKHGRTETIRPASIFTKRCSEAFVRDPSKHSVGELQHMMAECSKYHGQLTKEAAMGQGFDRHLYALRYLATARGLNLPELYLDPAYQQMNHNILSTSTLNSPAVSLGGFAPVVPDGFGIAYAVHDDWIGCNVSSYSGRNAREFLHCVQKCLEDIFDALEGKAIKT

[4] = target: T4, Carnitine O-palmitoyltransferase 1, liver isoform (Homo sapiens, UniProt P50416); test: (§2) SUPPLEMENTARY: Inhibition of Carnitine palmitoyltransferase 1, liver isoform
T4 sequence (P50416 whole entry): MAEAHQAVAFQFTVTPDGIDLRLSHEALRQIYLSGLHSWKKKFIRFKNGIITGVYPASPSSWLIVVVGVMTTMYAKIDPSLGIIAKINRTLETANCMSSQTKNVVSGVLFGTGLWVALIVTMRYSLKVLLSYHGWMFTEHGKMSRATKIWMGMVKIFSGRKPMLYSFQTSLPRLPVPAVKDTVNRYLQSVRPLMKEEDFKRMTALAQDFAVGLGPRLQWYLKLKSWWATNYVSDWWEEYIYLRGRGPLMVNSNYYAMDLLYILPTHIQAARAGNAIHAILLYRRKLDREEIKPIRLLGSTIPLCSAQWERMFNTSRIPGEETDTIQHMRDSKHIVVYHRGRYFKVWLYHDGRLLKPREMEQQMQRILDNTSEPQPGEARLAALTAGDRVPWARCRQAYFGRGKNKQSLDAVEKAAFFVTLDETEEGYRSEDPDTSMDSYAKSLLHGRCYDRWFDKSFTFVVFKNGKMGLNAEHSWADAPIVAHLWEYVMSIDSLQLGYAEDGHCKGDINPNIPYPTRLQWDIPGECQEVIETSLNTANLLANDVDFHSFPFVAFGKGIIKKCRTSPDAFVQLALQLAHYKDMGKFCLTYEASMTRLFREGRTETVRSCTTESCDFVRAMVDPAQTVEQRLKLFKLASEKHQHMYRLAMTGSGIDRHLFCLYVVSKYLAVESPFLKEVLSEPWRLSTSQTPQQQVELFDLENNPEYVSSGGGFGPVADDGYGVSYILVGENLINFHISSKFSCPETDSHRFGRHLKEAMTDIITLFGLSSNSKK

[5] = target: T5, Carnitine O-palmitoyltransferase 1, liver isoform (Rattus norvegicus, UniProt P32198); test: as §2
T5 sequence (P32198 whole entry): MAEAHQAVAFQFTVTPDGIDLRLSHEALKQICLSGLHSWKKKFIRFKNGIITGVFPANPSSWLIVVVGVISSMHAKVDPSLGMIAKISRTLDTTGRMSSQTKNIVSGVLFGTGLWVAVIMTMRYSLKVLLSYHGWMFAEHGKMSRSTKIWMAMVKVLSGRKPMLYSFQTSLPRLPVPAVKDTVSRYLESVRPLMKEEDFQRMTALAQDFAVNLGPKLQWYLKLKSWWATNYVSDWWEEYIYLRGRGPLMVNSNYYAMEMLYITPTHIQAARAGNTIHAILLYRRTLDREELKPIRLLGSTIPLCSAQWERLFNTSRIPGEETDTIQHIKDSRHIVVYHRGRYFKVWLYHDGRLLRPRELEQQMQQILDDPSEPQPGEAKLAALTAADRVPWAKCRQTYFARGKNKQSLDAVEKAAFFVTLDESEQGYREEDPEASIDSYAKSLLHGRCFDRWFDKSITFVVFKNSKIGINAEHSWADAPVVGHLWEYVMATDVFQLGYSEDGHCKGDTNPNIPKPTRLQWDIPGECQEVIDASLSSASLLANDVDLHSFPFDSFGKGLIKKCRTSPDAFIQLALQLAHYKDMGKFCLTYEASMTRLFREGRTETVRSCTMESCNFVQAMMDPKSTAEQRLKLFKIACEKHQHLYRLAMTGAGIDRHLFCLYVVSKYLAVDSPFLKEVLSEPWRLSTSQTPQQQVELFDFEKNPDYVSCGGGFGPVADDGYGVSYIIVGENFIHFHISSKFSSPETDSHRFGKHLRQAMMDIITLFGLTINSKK

[6] = SUPPLEMENTARY: Lyophilisation Solubility Assay (LYSA); type: physicochemical; settings: read-out: Kinetic_solubility
[7] = SUPPLEMENTARY: Lipophilicity (log D) Determination by high-throughput shake-flask; type: physicochemical; settings: octanol/water
[8] = SUPPLEMENTARY: PAMPA permeability assay; type: physicochemical; settings: read-out: Permeability

| IC50 [1] [nM] | IC50 [2] [nM] | IC50 [3] [nM] | IC50 [4] [nM] | IC50 [5] [nM] | solubility kinetic [6] [µg/mL] | logD [7] | Papp [8] [×10⁻⁶ cm/s] | Structure (SMILES) |
| --- | --- | --- | --- | --- | --- | --- | --- | --- |
| > 100000 | 62300 | > 100000 | 223 | 376 | < 1 | > 3 | 4.39 | O=C(COc1ccccc1)N1CCCC[C@@H]1c1nc(-c2ccc([N+](=O)[O-])s2)no1 |
| > 100000 | 9990 | 35700 | 68.2 | 297 | 6 (≈ 15.1 µM) | 2.53 | 5.09 | O=C(COc1ccccc1)N1CCCC[C@@H]1c1nc(-c2ccc([N+](=O)[O-])o2)no1 |
| > 100000 | 29300 | > 100000 | 108 | 565 | 101 (≈ 274 µM) | 2.96 | 2.69 | O=C(COc1ccccc1)N1CCCC[C@@H]1c1nc(-c2cccs2)n[nH]1 |
| > 100000 | 81400 | > 100000 | 106 | 187 | 61.5 (≈ 162 µM) | 3.06 | 4.79 | O=C(COc1ccccc1)N1CCCC[C@@H]1c1nc(-c2ccccc2F)n[nH]1 |
| > 100000 | > 100000 | > 100000 | 82.7 | 250 | 23 (≈ 60.5 µM) | 3.5 | 1.45 | O=C(COc1ccccc1)N1CCCC[C@@H]1c1nc(-c2cccc(F)c2)n[nH]1 |
| > 100000 | > 100000 | > 100000 | 239 | 598 | 77 (≈ 193 µM) | 2.77 | 1.72 | O=C(COc1ccccc1)N1CCCC[C@@H]1c1nc(-c2ccc(F)c(F)c2)n[nH]1 |
| > 100000 | > 100000 | > 100000 | 288 | 500 | < 1 | > 3 | 2.48 | COc1ccc(-c2noc([C@H]3CCCCN3C(=O)C#Cc3ccccc3)n2)cc1 |
| 27300 | > 100000 | > 100000 | 34.5 | 25.9 | 446 (≈ 887 µM) | -0.45 | 0.03 | COc1ccc(Cl)cc1S(=O)(=O)N1CC(C(=O)O)Oc2ccc(C(=O)Nc3ccccc3)cc21 (stereo not drawn) |
| > 100000 | > 100000 | > 100000 | 164 | 190 | 1 (≈ 2.9 µM) | 3.56 | 0.61 | N#Cc1ccc(C#C[C@H]2CCCCN2C(=O)COc2ccccc2)cc1 |
| > 100000 | > 100000 | > 100000 | 86.6 | 83.8 | 8 (≈ 20.1 µM) | 3.01 | 4.11 | NS(=O)(=O)c1ccc(C#C[C@H]2CCCCN2C(=O)COc2ccccc2)cc1 |
| > 100000 | > 100000 | > 100000 | 154 | 205 | 2 (≈ 5.12 µM) | 3.51 | 1.09 | O=C1COc2cc(C#C[C@H]3CCCCN3C(=O)COc3ccccc3)ccc2N1 |

Source: ChEMBL document CHEMBL3431459, “Roche carnitine palmitoyltransferase modulator screening data (supplementary data associated with the publication CHEMBL2216752)”
